The values that follow come from publication PMC5121622, “Cytotoxic and genotoxic potential of food-borne nitriles in a liver in vitro model” (Scientific Reports, 2016).

Molecules are shown by their SMILES. Entries after “also recorded” stand apart in the source; their conditions may differ. Like-named read-outs stand apart in the source and are kept apart here.

Data set [1] has as its system human liver cancer (HepG2) cells. Put plainly: WST-1 cytotoxicity assay in HepG2 cells. Format: cell-based. Particulars: for change in cell viability: HepG2, 72 h, 0.3 to 30 mM; for IC50: HepG2, 72 h treatment, WST-1 assay. How it is done:
(§1) HepG2 cells were purchased from the German Collection of Microorganisms and Cell Cultures (DSMZ, Braunschweig, Germany). HepG2 cells which constitutively express human CYP2E1 (E47 cells, HepG2-CYP2E1) and control HepG2 cells transfected with empty vector (C34 cells, HepG2- vector), originally established by Wu and Cederbaum[27], were kindly provided by C. Hellerbrand (University Medical Center Regensburg, Germany). The cells were cultured in low glucose Dulbecco’s modified eagle medium supplemented with 15% fetal calf serum and 1% Pen/Strep in an atmosphere with 5% CO2 at 37 °C and 95% air humidity.
(§2) Cytotoxicity was determined with the WST-1 assay (Roche Diagnostics Deutschland GmbH, Mannheim, Germany). The assay is based on the ability of viable cells to cleave the tetrazolium salt WST-1 to formazan by their mitochondrial succinate-tetrazolium-reductase system. Cells were cultured at an initial density of 5000 cells/well in 96-well plates for 48 h. Then, cells were treated with the nitriles (0.3 to 30 mM, solved in distilled water) for 72 h. As positive control, 0.01% Triton X-100 was used. Following compound exposure and incubation, the WST 1 assay was performed according to the manufacturer’s instructions.
The median growth inhibitory concentration (IC50) for compound cytotoxicity was calculated using Graphpad Prism 5.0 software (La Jolla, CA). After logarithmic transformation, IC50 values were calculated with equation 1: […]

Another data set concerns quinone reductase. The conditions noted are these: cited from earlier work.
Data set [2] deals with primary murine hepatocytes. The experiment in a line: WST-1 cell viability in primary murine hepatocytes. The data set is classed as cell-based, mouse. The conditions noted are these: 72 h. As for the experimental part: Murine hepatocytes were obtained from 8–16 week-old, male C57BL6 mice (Charles River Laboratory, Sulzfeld, Germany) as described elsewhere. The institutional and national guidelines for the care and use of animals were followed, and all experimental procedures were approved by the institutional Animal Care and Use Committee at the University of Freiburg according to § 8.I of the Animal Welfare Act. 2–2.2 × 10^5 cells were plated in 24 well plates. The cells were left undisturbed for 4 h in a 5% CO2 atmosphere at 37 °C and then the medium was changed to serum free Williams’ Medium E supplemented with 100 nM dexamethasone. Within 24 h the cells were exposed to the test compounds and controls for 72 h.
as §2

For data set [3], the system named is HepG2 cells. The experiment in a line: Comet assay (DNA strand breaks) in HepG2 cells. Format: cell-based, human. Particulars: HepG2, 24 h; for concentration with significant increase in DNA strand breaks: Olive Tail Moment and percent tail DNA. How it is done:
(§3) The single cell gel electrophoresis assay also known as Comet assay was carried out as described earlier with slight modifications. The percent tail DNA and the Olive Tail Moment (OTM) were calculated as indicators of DNA damage. For each sample, 102 systematically screened cells were evaluated. Briefly, HepG2 cells were seeded onto well plates. After 48 h of growth, the cells were exposed to the nitriles or ITC for 24 h. As positive control 50 μM B(α)P and as solvent control distilled water or 0.1% DMSO was used. To analyze the repair capacity of HepG2 cells, the test substances were removed after 24 h and incubated for another 24 h before the assay was terminated.

Data set [4] has as its system HepG2-CYP2E1 cells. Put plainly: Comet assay in CYP2E1 transfected HepG2 and vector cells. Format: cell-based, human. The conditions noted are these: 24 h. How it is done:
as §1, §3

The test system of data set [5] is activated human T lymphocytes. Also on record: method as in PMID 27161402. The conditions noted are these: cited from earlier work.
For the next data set, the system named is UM-2BB cells. Set-up: method as in Lui et al. (2003). The conditions noted are these: MTT-assay, ref Lui et al. (2003); cited from earlier work.
A further data set concerns Hepa1c1c7 cells. The conditions noted are these: Hepa1c1c7, 5 mM, 72 h; cited from earlier work.
In data set [6] the test system is HepG2 cells. Also on record: method as in Lamy et al. (2009). The conditions noted are these: HepG2, Comet assay and micronucleus test; ref Lamy et al. (2009); cited from earlier work.
Data set [7] relates to HepG2-CYP2E1 cells. The experiment in a line: WST-1 cytotoxicity assay in CYP2E1-overexpressing HepG2 cells versus vector control cells. The data set is classed as cell-based, human. Particulars: 10 mM, 72 h. How it is done:
as §1, §2

Setting [8] is: Homo sapiens, read-out: IC50 (median growth inhibitory concentration).

As to `C=CCCCC#N` [4-pent-CN, 5-hexenenitrile], the “change in cell viability” value in data set [1] is listed as “did not result in significant changes in cell viability”.
For the compound `C[S+]([O-])CCCCC#N` (centres unmarked) [sulforaphane nitrile, 5-(methylsulfinyl)pentylnitrile], the “concentration reaching a similar induction of quinone reductase as sulforaphane” value with quinone reductase is reported as 2 mM.
On to `N#CCc1ccccc1` [benzyl-CN, phenylacetonitrile], for which the IC50 in [1] (setting [8]) was determined as 19.9 mM. Besides, the viability of hepatocytes entry in [2] is on record as “significantly decreased the viability of hepatocytes in a concentration-dependent manner”. In the data set with HepG2 cells [3], the “DNA strand breaks, concentration dependence” value is reported as “concentration-dependent increase in DNA strand breaks” and the “concentration with significant increase in DNA strand breaks” value is ≥ 3 µM. Besides, the “DNA damage compared with benzyl ITC” value in the data set with HepG2 cells [3] (3 μM) is “comparable with the effect of benzyl ITC at the same concentration; also recorded: comparable with the effect of benzyl-ITC in the same concentration”. Also, the “concentration with significant increment of DNA strand breaks by CYP2E1-overexpression as compared to vector control cells” value in the data set with HepG2-CYP2E1 cells [4] was ≥ 3 µM. In addition, the “influence on PGE2 release” value in data set [5] (1 mM) was “did not influence PGE2 release”.
Take `S=C=NCc1ccccc1` [benzyl-ITC, benzyl ITC, reference compound]: the figures for the IC50 (in data set [1] (read-out: IC50); with UM-2BB cells) were 0.0158 mM and 0.017 mM, respectively. Besides, the “cytotoxic potency relative to the nitriles” value in data set [1] (HepG2, ITC versus corresponding nitrile) worked out at 1000 fold. In addition, the “concentration with strong interference with pro-inflammatory response including PGE2 release” value in data set [5] (activated human T lymphocytes) is ≥ 3 µM.
Consider `C=CC(O)CC#N` (centres unmarked) [crambene, 3-hydroxy-4-pentenenitrile], for which, in the data set on Hepa1c1c7 cells, the “cell proliferation diminished by” value was 76% and the “cell viability reduced by” value is 12%.
Turning to `CSCCCN=C=S` [3-MTP-ITC, 3-(methylthio)propyl ITC], the “concentration inducing DNA damage and mutagenicity” value in the data set with HepG2 cells [6] is given as “exceeding 1 μM”.
For the compound `C=CCC#N` [allyl-CN, 3-butenenitrile], the “change in cell viability” value in data set [1] is “did not result in significant changes in cell viability”. In addition, in data set [2], the viability of hepatocytes result is “significantly decreased the viability of hepatocytes in a concentration-dependent manner”.
For the compound `C[S+]([O-])CCCCN=C=S` (centres unmarked) [Sulforaphane, 4-(methylsulfinyl)butyl ITC], in the data set on quinone reductase, the “concentration inducing quinone reductase” value was 2.5 µM and the “maximum induction of quinone reductase” value is reported as 3.1 fold.
With `CSCCCCCC#N` [5-MTP-CN, 6-(methylthio)hexylnitrile], the IC50 in [1] (setting [8]) is 12.2 mM.
`CSCCCCC#N` [4-MTB-CN, 5-(methylthio)pentylnitrile]: the IC50 in [1] (setting [8]) was determined as 17.9 mM. Also, the “difference in cytotoxicity between CYP2E1-overexpressing and vector control cells” value in the data set on HepG2-CYP2E1 cells [7] was “significant difference in cytotoxicity”. For the same compound, the “concentration at which a viability loss was detected” value in data set [2] was determined as 30000 µM. For the same compound, in the data set with HepG2 cells [3], the “DNA strand breaks, concentration dependence” value is “concentration-dependent increase in DNA strand breaks” and the “concentration with significant increase in DNA strand breaks” value is ≥ 3 µM.
Consider `C=CCCC#N` [3-but-CN, 4-pentenenitrile], for which, in [1], the “change in cell viability” value is reported as “did not result in significant changes in cell viability”. Besides, in [2], the viability of hepatocytes entry is recorded as “significantly decreased the viability of hepatocytes in a concentration-dependent manner”.
Take `CSCCCC#N` [3-MTP-CN, 4-(methylthio)butylnitrile]: the IC50 in data set [1] (setting [8]) was determined as 19.5 mM.
Take `N#CCCc1ccccc1` [2-phenylethyl-CN, 3-phenylpropanenitrile]: in [1] (setting [8]), the IC50 is 18.2 mM.
For `CSCCCCCN=C=S` [5-MTP-ITC, 5-(methylthio)pentyl ITC], in the data set with HepG2 cells [6], the “concentration inducing DNA damage and mutagenicity” value is recorded as “exceeding 1 μM”.
With `CSCCCCCCC#N` [6-MTH-CN, 7-(methylthio)heptylnitrile], the IC50 in data set [1] (setting [8]) was 8.15 mM.
